Converted amounts (≈) assume the structure as drawn. “Also recorded” adds a separate entry of the source. Like-named read-outs stand apart in the source and are kept apart here. Values belong to the compound of their own block, whether it stands above or below them.
Key:
[1] = system: Malassezia indicator strains; assay: Agar plate diffusion assay, antifungal activity in words; format: cell-based; conditions: against Malassezia, compared among fractions 1-7
Method: (§1) said first extract is analyzed for antifungal activity using agar plate diffusion assay and by time kill procedure. […] For time-kill procedure, the inoculum suspension of indicator strains of Malassezia (10^5 CFU/mL) is exposed to different concentration of First extract. Then, 50-μL aliquots is withdrawn at fixed intervals and evaluated. […] Said first extract is used further for down streaming to separate the antifungal peptides.
About 15 ml fraction which was obtained after anion exchange chromatography was lyophilized to get about 1500 mg of dry powder. About 50 mg was mixed with 1 ml sodium phosphate buffer and then said solution was injected to Scalar C18 column. The separation of the antifungal peptides was carried out by binary solvent gradient elution system comprising about 0.1% trifluoroacetic acid in HPLC grade deionized water (eluent A) and about 0.1% trifluoroacetic acid in acetonitrile (eluent B). The gradient program was as follows between: 0 to 20 min, 0-40% B, 20-30 min, 40 to 80% B, 30 to 35 min, 80 to 100% B, 35 to 45 min, 100 to 0% B at a flow rate of about 1.0 mL/min at 30° C., Six separate fractions were collected at retention times of 24.5, 28.2, 30.1, 32.2, 34.5 and 37.1 minutes and seventh fraction was collected from 38 to 43 minutes according to the absorption profile at 220 nm and 280 nm using the fraction collector and further freeze-dried. […]

M. globosa [2] = assay: MIC and MFC by broth microdilution technique; format: cell-based, Malassezia globosa; conditions: for MFC: first figure of MFC/MIC cell; for MIC: second figure of MFC/MIC cell
Method: (§2) The MIC of first extract and individual fractions (1-7) which were collected from RP-HPLC was calculated by ‘broth microdilution technique’ in 96-well microtiter plates. […] As a positive control, commercially used antifungal drug ketoconazole was used in concentrations ranging from 32 μg/mL to 0.0156 μg/mL. The plates were incubated at 30° C. for Malassezia spp and the results were recorded after 48 h and 7 days. The minimum inhibitory concentration (MIC) was measured as the lowest sample concentration that could inhibit the fungal growth.

M. globosa [3] = assay: Agar plate diffusion assay, zone of inhibition; format: cell-based, Malassezia globosa
Method: as §1
(§3) About 15 ml fraction which was obtained after anion exchange chromatography was lyophilized to get about 1500 mg of dry powder. About 50 mg was mixed with 1 ml sodium phosphate buffer and then said solution was injected to Scalar C18 column. The separation of the antifungal peptides was carried out by binary solvent gradient elution system comprising about 0.1% trifluoroacetic acid in HPLC grade deionized water (eluent A) and about 0.1% trifluoroacetic acid in acetonitrile (eluent B). The gradient program was as follows between: 0 to 20 min, 0-40% B, 20-30 min, 40 to 80% B, 30 to 35 min, 80 to 100% B, 35 to 45 min, 100 to 0% B at a flow rate of about 1.0 mL/min at 30° C., Six separate fractions were collected at retention times of 24.5, 28.2, 30.1, 32.2, 34.5 and 37.1 minutes and seventh fraction was collected from 38 to 43 minutes according to the absorption profile at 220 nm and 280 nm using the fraction collector and further freeze-dried. Individual fractions were labelled as 1, 2, 3, 4, 5, 6 and 7 in the order if increasing retention times, dissolved in sterile distilled water and then tested for their individual antifungal activity. […] And fraction 5 was not reported against M. furfur, M. globose species. For experiment the 0.1 M sodium phosphate buffer was used as a negative control and Ketoconazol was used as a positive control

M. furfur [4] = assay: MIC and MFC by broth microdilution technique; format: cell-based, Malassezia furfur; conditions: for MFC: first figure of MFC/MIC cell; for MIC: second figure of MFC/MIC cell
Method: as §2

M. furfur [5] = assay: Agar plate diffusion assay, zone of inhibition; format: cell-based, Malassezia furfur
Method: as §1, §3

Compound: C[C@@H]1CCC/C=C/C=C/[C@H](O)C[C@@H](O)C/C=C\C=C\[C@@H](O)C/C=C/C=C\C(=O)O1 [Fraction 5, Macrolactin A]
- antifungal activity of individual fractions in words [1]: strongest anti-fungal activity
- MFC (M. globosa [2]): 275 µg/mL (≈ 683 µM)
- MIC (M. globosa [2]): 138 µg/mL (≈ 343 µM)
- Zone of inhibition (M. globosa [3]): 2 ± 0.69 mm
- MFC (M. furfur [4]; M. furfur): 330 µg/mL (≈ 820 µM)
- MIC (M. furfur [4]; M. furfur): 165 µg/mL (≈ 410 µM)
- MFC (M. furfur [4]; first M. furfur column): 313 µg/mL (≈ 778 µM)
- MIC (M. furfur [4]; first M. furfur column): 156 µg/mL (≈ 388 µM)
- Zone of inhibition (M. furfur [5]): 2 ± 0.77 mm

- MIC (M. globosa [2]): 48 µg/mL (≈ 95.5 µM)
- MIC (M. furfur [4]; M. furfur): 48 µg/mL (≈ 95.5 µM)
- MIC (M. furfur [4]; first M. furfur column): 48 µg/mL (≈ 95.5 µM)
Compound: CC1CCCC=CC=CC(O)CC(O)CC=CC=CC(OC(=O)CCC(=O)O)CC=CC=CC(=O)O1 (stereo not drawn) [Fraction 6, 7-O-succinylmacrolactin A]
- antifungal activity of individual fractions in words [1]: strongest anti-fungal activity; also recorded: strongest antifungal activity
- MFC (M. globosa [2]): 96 µg/mL (≈ 191 µM)
- Zone of inhibition (M. globosa [3]): 7 ± 0.65 mm
- MFC (M. furfur [4]; M. furfur): 96 µg/mL (≈ 191 µM)
- MFC (M. furfur [4]; first M. furfur column): 96 µg/mL (≈ 191 µM)
- Zone of inhibition (M. furfur [5]): 6 ± 0.7 mm

- MIC (M. globosa [2]; Malassezia globosa, read-out: MIC): 0.03 µg/mL (≈ 0.0565 µM)
- MIC (M. furfur [4]; M. furfur): 0.03 µg/mL (≈ 0.0565 µM)
- MIC (M. furfur [4]; Malassezia furfur, first M. furfur column, read-out: MIC): 0.03 µg/mL (≈ 0.0565 µM)
Compound: CC(=O)N1CCN(c2ccc(OCC3COC(Cn4ccnc4)(c4ccc(Cl)cc4Cl)O3)cc2)CC1 (stereo not drawn) [Ketoconazole, reference compound]
- MFC (M. globosa [2]; Malassezia globosa, read-out: MFC): 0.08 µg/mL (≈ 0.151 µM)
- Zone of inhibition (M. globosa [3]): 11 ± 0.64 mm
- MFC (M. furfur [4]; M. furfur): 0.1 µg/mL (≈ 0.188 µM)
- MFC (M. furfur [4]; Malassezia furfur, first M. furfur column, read-out: MFC): 0.1 µg/mL (≈ 0.188 µM)
- Zone of inhibition (M. furfur [5]): 12 ± 0.65 mm

Compound: C14 Bacillomycin D [Fraction 2]
- MFC (M. globosa [2]): >228 µg/mL
- MIC (M. globosa [2]): >228 µg/mL
- Zone of inhibition (M. globosa [3]): 2 ± 0.42 mm
- MFC (M. furfur [4]; M. furfur): >228 µg/mL
- MIC (M. furfur [4]; M. furfur): >228 µg/mL
- MFC (M. furfur [4]; first M. furfur column): >228 µg/mL
- MIC (M. furfur [4]; first M. furfur column): >228 µg/mL
- Zone of inhibition (M. furfur [5]): 2 ± 0.45 mm

Compound: C15 Bacillomycin D [Fraction 3]
- MFC (M. globosa [2]): >228 µg/mL
- MIC (M. globosa [2]): >228 µg/mL
- Zone of inhibition (M. globosa [3]): 2 ± 0.25 mm
- MFC (M. furfur [4]; M. furfur): >228 µg/mL
- MIC (M. furfur [4]; M. furfur): >228 µg/mL
- MFC (M. furfur [4]; first M. furfur column): >228 µg/mL
- MIC (M. furfur [4]; first M. furfur column): >228 µg/mL
- Zone of inhibition (M. furfur [5]): 3 ± 0.26 mm

Compound: C16 Bacillomycin D [Fraction 4]
- MFC (M. globosa [2]): >228 µg/mL
- MIC (M. globosa [2]): >228 µg/mL
- MFC (M. furfur [4]; M. furfur): >228 µg/mL
- MIC (M. furfur [4]; M. furfur): >228 µg/mL
- MFC (M. furfur [4]; first M. furfur column): >228 µg/mL
- MIC (M. furfur [4]; first M. furfur column): >228 µg/mL

From patent US12508216B2, “Process for the preparation of antimalassezia powder” (PRAJ INDUSTRIES LIMITED, priority 2022, dated 2025)
